Measured values taken from US10912840B2, “Conjugates for treating diseases caused by PSMA expressing cells” (priority 2012, dated 2021).
“Also recorded” adds a separate entry of the source. Where two headings read alike, the source gives them in different places.

Assays:
[1] = assay type: in vivo; conditions: rats, i.v., 0.33 and 0.51 μmol/kg, BIW, 2 weeks
[2] = test system: LNCaP cells; conditions: human
Procedure: LNCaP cells are seeded in 24-well Corning Cell-BIND plates and allowed to form nearly confluent monolayers overnight in RPMI/HIFCS. Thirty minutes prior to the addition of test compound, such as a compound described herein, spent medium is aspirated from all wells and replaced with fresh RPMI. Following one rinse with 1 mL of fresh RPMI/HIFCS, each well receives 1 mL of media containing increasing concentrations of test compound (four wells per sample). Test compound treated cells are pulsed for 2 h at 37° C., rinsed four times with 0.5 mL of media, and then chased in 1 mL of fresh media up to 70 h. Spent media is aspirated from all wells and replaced with fresh media containing 5 μCi/mL ^3H-thymidine. Following a further 4 h 37° C. incubation, cells are washed three times with 0.5 mL of PBS and then treated with 0.5 mL of ice-cold 5% trichloroacetic acid per well. After 15 min, the trichloroacetic acid is aspirated and the cells are solubilized by the addition of 0.5 mL of 0.25 N sodium hydroxide for 15 min. Four hundred and fifty microliters of each solubilized sample is transferred to scintillation vials containing 3 mL of Ecolume scintillation cocktail and then counted in a liquid scintillation counter. Final tabulated results are expressed as the percentage of ^3H-thymidine incorporation relative to untreated controls.

[3] = Gross toxicity (body weight change) in LNCaP tumor-bearing mice
Procedure: Four to seven week-old male nu/nu mice (Harlan Sprague Dawley. Inc., Indianapolis, Ind.) are maintained on a standard 12 h light-dark cycle and fed ad libitum with rodent diet #2918 (Harlan Teklad, Madison, Wis.) for the duration of the experiment. LNCaP cells are grown in RPMI in 10% HIFCS at 37° C. in a 5% CO2/95% air-humidified atmosphere, harvested and resuspended on ice in matrigel solution (50% RPMI+50% matrigel high concentration. BD#354248) to a final concentration of 1×10^6 cells/50 μL. Cell solution and injection needles (28 gauge) are kept on ice prior to injection and 50 μL of the cell solution injected in the subcutis of the dorsal medial area. Mice are divided into groups of five, seven, or nine, and freshly prepared test compound solutions are injected through the lateral tail vein under sterile conditions in a volume of 200 μL of phosphate-buffered saline (PBS). […] Growth of each s.c. tumor is followed by measuring the tumor three times per week during treatment and twice per week thereafter, until a volume of 1500 mm^3 is reached. Tumors are measured in two perpendicular directions using Vernier calipers, and their volumes are calculated as 0.5×L×W^2, where L=measurement of longest axis in mm and W=measurement of axis perpendicular to L in mm. As a general measure of gross toxicity, changes in body weights are determined on the same schedule as tumor volume measurements. Maximum % weight loss on any given day due to treatment is determined for each mouse. Survival of animals is monitored daily. Animals that are moribund (or unable to reach food or water) are euthanized by CO2 asphyxiation.

[4] = biological target: T1, PSMA (Homo sapiens, UniProt Q04609); assay type: binding
T1 construct: endogenous in cells; host or cells: LNCaP cells
Procedure: PSMA relative affinity assay. LNCaP cells are seeded in 12-well Corning Cell-BIND plates and allowed to form adherent monolayers overnight in RPMI/HIFCS. Spent incubation media is replaced with RPMI supplemented with 10% HIFCS and containing a standard PSMA binding ligand, such as 100 nM of 3H-PMPA or a competing compound, such as EC0652, Re-EC652, or ^99mTc-EC0652, in the absence and presence of increasing concentrations of test compound, such as unlabeled PMPA, or a compound described herein, such as EC1169 or EC1568, a negative control intermediate lacking a PSMA binding ligand which is used as a negative control. Cells are incubated for 1 h at 37° C. and then rinsed three times with 0.5 mL of PBS. Five hundred microliters of 1% sodium dodecylsulfate in PBS are added to each well; after 5 min, cell lysates are collected, transferred to individual tubes or to vials containing 5 mL of scintillation cocktail, and then counted for radioactivity. Cells exposed to only the standard PSMA binding ligand, such as 3H-PMPA, or competing compound, such as ^99mTc-EC0652, in FFRPMI (no competitor) are designated as negative controls, whereas cells exposed to the standard PSMA binding ligand, such as 3H-PMPA, plus 1 mM unlabeled PMPA or competing compound, such as ^99mTc-EC0652 plus Re-EC0652, serve as positive controls. Disintegrations per minute (DPMs) measured in the latter samples (representing nonspecific binding of label) are subtracted from the DPM values from all samples. Relative affinities are defined as the inverse molar ratio of compound required to displace 50% of the standard PSMA binding ligand, such as ^3H-PMPA, or the competing compound, such as ^99mTc-EC0652, bound to PSMA on LNCaP cells, and the relative affinity of the standard PSMA binding ligand, such as PMPA, or the competing compound, such as Re-EC0652, for PSMA is set to 1.

[5] = test system: PSMA-positive LNCaP human xenografts; assay: Activity in vivo against PSMA+ tumor implanted in mice; conditions: for tumor growth in vivo compared to untreated animals / cures (cured/tested animals; no tumor growth during entire observation period): 2 μmol/kg, LNCaP xenografts; for tumor growth in vivo compared to untreated animals: TIW for 2 weeks, beginning on day 21 post tumor implant; for cures (cured/tested animals; no tumor growth during entire observation period): TIW
Source text: Survival of animals is monitored daily.

[6] = PMPA = 1.0 (normalized), in 10% serum/FDRPMI
[7] = 10 mg/kg, BIW, 2 weeks, MTD, LNCaP-tumor bearing mice

T1 sequence (Q04609 whole entry): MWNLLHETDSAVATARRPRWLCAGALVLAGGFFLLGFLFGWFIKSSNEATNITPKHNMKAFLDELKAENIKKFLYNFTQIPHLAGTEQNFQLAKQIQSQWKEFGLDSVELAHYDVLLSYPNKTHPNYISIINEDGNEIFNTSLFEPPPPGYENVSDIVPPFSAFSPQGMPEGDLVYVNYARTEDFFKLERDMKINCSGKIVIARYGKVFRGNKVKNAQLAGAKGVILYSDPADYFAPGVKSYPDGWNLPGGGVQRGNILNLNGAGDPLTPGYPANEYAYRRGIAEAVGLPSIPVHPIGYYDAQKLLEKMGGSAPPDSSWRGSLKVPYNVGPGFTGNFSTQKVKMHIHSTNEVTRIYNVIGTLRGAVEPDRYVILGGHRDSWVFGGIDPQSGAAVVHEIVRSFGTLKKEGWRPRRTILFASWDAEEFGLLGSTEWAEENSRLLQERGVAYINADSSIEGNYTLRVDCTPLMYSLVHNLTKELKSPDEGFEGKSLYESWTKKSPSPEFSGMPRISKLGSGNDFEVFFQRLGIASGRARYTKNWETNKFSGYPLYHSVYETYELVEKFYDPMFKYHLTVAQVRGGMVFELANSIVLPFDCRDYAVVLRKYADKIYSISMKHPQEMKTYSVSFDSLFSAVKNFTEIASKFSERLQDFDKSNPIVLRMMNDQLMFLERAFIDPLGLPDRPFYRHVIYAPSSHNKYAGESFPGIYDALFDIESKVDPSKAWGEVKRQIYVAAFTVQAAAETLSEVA

In the case of CCCC(=O)OCN(C(=O)[C@@H](NC(=O)[C@H]1CCCCN1C)C(C)CC)[C@H](C[C@@H](OC(C)=O)c1nc(C(=O)N[C@@H](Cc2ccc(O)cc2)C[C@H](C)C(=O)NNC(=O)OCCSSC[C@H](NC(=O)[C@H](CC(=O)O)NC(=O)[C@H](CC(=O)O)NC(=O)Cc2ccc(CNC(=O)NCCCC[C@H](NC(=O)N[C@@H](CCC(=O)O)C(=O)O)C(=O)O)cc2)C(=O)O)cs1)C(C)C (stereo partly shown) [EC1169], the “hematological toxicity in red blood cells and white blood cells” value [1] is reported as “significantly lower than untreated controls”, the IC50 [2] is reported as 13 nM and the “gross animal toxicity (weight loss, major organ tissue degeneration)” value ([3]; 2 μmol/kg, TIW, 2 weeks) is reported as “absence of weight loss or major organ tissue degeneration”. The “gross toxicity compared to docetaxel” value ([3]; 2 μmol/kg, TIW, 2 weeks vs docetaxel 10 mg/kg, BIW, MTD) was “substantially less gross animal toxicity compared to docetaxel; also recorded: less toxic than docetaxel” and the “gross animal toxicity (weight loss, major organ tissue degeneration)” value ([3]; 2 μmol/kg, TIW, 2 weeks, listed as EC169) was “do not exhibit gross animal toxicity”.
With O=C(O)CC[C@H](NC(=O)N[C@@H](CCCCNC(=O)NCc1ccc(CC(=O)N[C@@H](CC(=O)O)C(=O)N[C@@H](CC(=O)O)C(=O)NCC(=O)O)cc1)C(=O)O)C(=O)O [EC1168] the “Relative PSMA Binding Affinity (fold over PMPA = 1.0)” value [4] was 17 fold and the “relative affinity for PSMA” value [4, 6] was 17 ×.
For O=C(O)CC[C@H](CP(=O)(O)O)C(=O)O [PMPA, reference compound], the “relative affinity for PSMA” value [4] was 1.0 ×.
For CCCCCOCN(C(=O)[C@@H](NC(=O)[C@H]1CCCCN1C)[C@@H](C)CC)[C@H](C[C@@H](OC(C)=O)c1nc(C(=O)N[C@@H](Cc2ccc(O)cc2)C[C@H](C)C(=O)NNC(=O)OCCSSC[C@H](NC(=O)[C@H](CC(=O)O)NC(=O)[C@H](CC(=O)O)NC(=O)Cc2ccc(CNC(=O)NCCCC[C@H](NC(=O)N[C@@H](CCC(=O)O)C(=O)O)C(=O)O)cc2)C(=O)O)cs1)C(C)C [EC1719], the “gross animal toxicity (weight loss, major organ tissue degeneration)” value ([3]; 2 μmol/kg, TIW, 2 weeks) was “do not exhibit gross animal toxicity”, the “tumor growth in vivo compared to untreated animals” value [5] was “efficacious in decreasing tumor growth” and the “cures (cured/tested animals; no tumor growth during entire observation period)” value ([5]; 2 weeks) was 2/7. For the same compound, the IC50 was 37.5 nM.
With CCCCOCN(C(=O)[C@@H](NC(=O)[C@H]1CCCCN1C)[C@@H](C)CC)[C@H](C[C@@H](OC(C)=O)c1nc(C(=O)N[C@@H](Cc2ccc(O)cc2)C[C@H](C)C(=O)NNC(=O)OCCSSC[C@H](NC(=O)[C@H](CC(=O)O)NC(=O)[C@H](CC(=O)O)NC(=O)Cc2ccc(CNC(=O)NCCCC[C@H](NC(=O)N[C@@H](CCC(=O)O)C(=O)O)C(=O)O)cc2)C(=O)O)cs1)C(C)C [EC1677] the “gross animal toxicity (weight loss, major organ tissue degeneration)” value ([3]; 2 μmol/kg, TIW, 2 weeks) was “do not exhibit gross animal toxicity”, the “tumor growth in vivo compared to untreated animals” value [5] was “efficacious in decreasing tumor growth” and the “cures (cured/tested animals; no tumor growth during entire observation period)” value ([5]; 2 weeks) was 4/7. For the same compound, the IC50 was 20.9 nM.
In the case of CCCC(=O)OCN(C(=O)[C@@H](NC(=O)[C@H]1CCCCN1C)C(C)CC)[C@H](C[C@@H](OC(C)=O)c1nc(C(=O)N[C@@H](Cc2ccc(O)cc2)C[C@H](C)C(=O)NNC(=O)OCCSSC[C@H](NC(=O)[C@H](Cc2ccccc2)NC(=O)[C@H](CC(=O)O)NC(=O)NCCCC[C@H](NC(C)=O)C(=O)O)C(=O)O)cs1)C(C)C (stereo partly shown) [EC1568, reference compound], the “Relative PSMA Binding Affinity (fold over PMPA = 1.0)” value [4] is reported as 0 fold.
For O=C(O)CC[C@H](NC(=O)N[C@@H](CCC(=O)O)C(=O)O)C(=O)O [DUPA, reference compound], the “relative affinity for PSMA” value [4] was 0.05 ×.
With CC(=O)O[C@@]12CO[C@@H]1C[C@H](O)[C@@]1(C)C(=O)[C@H](O)C3=C(C)[C@@H](OC(=O)[C@H](O)[C@@H](NC(=O)OC(C)(C)C)c4ccccc4)C[C@@](O)([C@@H](OC(=O)c4ccccc4)[C@H]21)C3(C)C [docetaxel, reference compound] the gross toxicity ([3]; 10 mg/kg, BIW, 2 weeks, MTD) was “high gross toxicity”, the weight loss ([3]; 10 mg/kg, BIW, 2 weeks, MTD) was 18% and the anti-tumor activity [5, 7] was “only modest anti-tumor activity”. The “cures (cured/tested animals)” value [5, 7] was 1/4.
With CCCCCCOCN(C(=O)[C@@H](NC(=O)[C@H]1CCCCN1C)C(C)CC)[C@H](C[C@@H](OC(C)=O)c1nc(C(=O)N[C@@H](Cc2ccc(O)cc2)C[C@H](C)C(=O)NNC(=O)OCCSSC[C@H](NC(=O)[C@H](CC(=O)O)NC(=O)[C@H](CC(=O)O)NC(=O)Cc2ccc(CNC(=O)NCCCC[C@H](NC(=O)N[C@@H](CCC(=O)O)C(=O)O)C(=O)O)cc2)C(=O)O)cs1)C(C)C (stereo partly shown) [EC1720] the IC50 [2] was 54.2 nM and the “gross animal toxicity (weight loss, major organ tissue degeneration)” value ([3]; 2 μmol/kg, TIW, 2 weeks) was “do not exhibit gross animal toxicity”.
In the case of CCCC(=O)OCN(C(=O)[C@@H](NC(=O)[C@H]1CCCCN1C)C(C)CC)[C@H](C[C@@H](OC(C)=O)c1nc(C(=O)N[C@@H](Cc2ccc(O)cc2)C[C@H](C)C(=O)NNC(=O)OCCSSC[C@H](NC(=O)[C@@H](CC(=O)O)NC(=O)[C@@H](CC(=O)O)NC(=O)Cc2ccc(CNC(=O)NCCCC[C@H](NC(=O)N[C@@H](CCC(=O)O)C(=O)O)C(=O)O)cc2)C(=O)O)cs1)C(C)C (stereo partly shown) [EC1308], the “Relative PSMA Binding Affinity (fold over PMPA = 1.0)” value [4] is reported as 20 fold.
For O=C(O)CC[C@H](NC(=O)N[C@@H](CCCCNC(=O)Nc1ccc(CC(=O)N[C@@H](CC(=O)O)C(=O)N[C@@H](CC(=O)O)C(=O)N[C@@H](CS)C(=O)O)cc1)C(=O)O)C(=O)O [EC1067], the “Relative PSMA Binding Affinity (fold over PMPA = 1.0)” value [4] was 30 fold and the “relative affinity for PSMA” value [4, 6] was 30 ×.
In the case of CCCCCCCOCN(C(=O)[C@@H](NC(=O)[C@H]1CCCCN1C)C(C)CC)[C@H](C[C@@H](OC(C)=O)c1nc(C(=O)N[C@@H](Cc2ccc(O)cc2)C[C@H](C)C(=O)NNC(=O)OCCSSC[C@H](NC(=O)[C@H](CC(=O)O)NC(=O)[C@H](CC(=O)O)NC(=O)Cc2ccc(CNC(=O)NCCCC[C@H](NC(=O)N[C@@H](CCC(=O)O)C(=O)O)C(=O)O)cc2)C(=O)O)cs1)C(C)C (stereo partly shown) [EC1721], the IC50 [2] is reported as 65.6 nM and the “gross animal toxicity (weight loss, major organ tissue degeneration)” value ([3]; 2 μmol/kg, TIW, 2 weeks) is reported as “do not exhibit gross animal toxicity”.
In the case of CCCC(=O)OCN(C(=O)[C@@H](NC(=O)[C@H]1CCCCN1C)C(C)CC)[C@H](C[C@@H](OC(C)=O)c1nc(C(=O)N[C@@H](Cc2ccc(O)cc2)C[C@H](C)C(=O)NNC(=O)OCCSSC[C@H](NC(=O)[C@H](CC(=O)O)NC(=O)[C@H](CCCNC(=N)N)NC(=O)Cc2ccc(CNC(=O)NCCCC[C@H](NC(=O)N[C@@H](CCC(=O)O)C(=O)O)C(=O)O)cc2)C(=O)O)cs1)C(C)C (stereo partly shown) [EC1310], the “Relative PSMA Binding Affinity (fold over PMPA = 1.0)” value [4] is reported as 10 fold.
In the case of CCCOCN(C(=O)[C@@H](NC(=O)[C@H]1CCCCN1C)[C@@H](C)CC)[C@H](C[C@@H](OC(C)=O)c1nc(C(=O)N[C@@H](Cc2ccc(O)cc2)C[C@H](C)C(=O)NNC(=O)OCCSSC[C@H](NC(=O)[C@H](CC(=O)O)NC(=O)[C@H](CC(=O)O)NC(=O)Cc2ccc(CNC(=O)NCCCC[C@H](NC(=O)N[C@@H](CCC(=O)O)C(=O)O)C(=O)O)cc2)C(=O)O)cs1)C(C)C [EC1718], the “gross animal toxicity (weight loss, major organ tissue degeneration)” value ([3]; 2 μmol/kg, TIW, 2 weeks) is reported as “do not exhibit gross animal toxicity”, the “tumor growth in vivo compared to untreated animals” value [5] is reported as “efficacious in decreasing tumor growth” and the “cures (cured/tested animals; no tumor growth during entire observation period)” value ([5]; 2 weeks) is reported as 1/7. It also gave an IC50 of 17.9 nM.
For O=C(O)CC[C@H](NC(=O)N[C@@H](CCCCNC(=O)Nc1ccc(CC(=O)O)cc1)C(=O)O)C(=O)O [EC1080], the “Relative PSMA Binding Affinity (fold over PMPA = 1.0)” value [4] was 6 fold and the “relative affinity for PSMA” value [4, 6] was 6 ×.
For O=C(O)CC[C@H](NC(=O)N[C@@H](CCCCNC(=O)NCc1ccc(CC(=O)N[C@@H](CC(=O)O)C(=O)N[C@@H](CC(=O)O)C(=O)N[C@@H](CS)C(=O)O)cc1)C(=O)O)C(=O)O [EC1167], the “Relative PSMA Binding Affinity (fold over PMPA = 1.0)” value [4] was 11 fold.
